Columns and labels:
[1] = target: 5-hydroxytryptamine receptor 1D (Sus scrofa, UniProt P79400); assay: Displacement of [3H]5-HT binding to 5-hydroxytryptamine 1D receptor from pig caudate membrane
[2] = target: 5-hydroxytryptamine receptor 2A (Rattus norvegicus, UniProt P14842); assay: Displacement of [3H]DOB binding to 5-hydroxytryptamine 2A receptor from rat cortex homogenate
5-HT1A receptor = 5-HT1A receptor (Sus scrofa, UniProt A0A4X1UTF5); assay: Displacement of [3H]8-OH-DPAT binding to 5-hydroxytryptamine 1A receptor from pig cortex
[3] = Partition coefficient at pH 7.4; type: physicochemical; details: octanol/water
Oryctolagus cuniculus [4] = organism: Oryctolagus cuniculus; assay: Ability to contract saphenous vein of New Zealand white rabbit.; type: functional
Oryctolagus cuniculus [5] = organism: Oryctolagus cuniculus; assay: Ability to contract saphenous vein of New Zealand white rabbit; type: functional
[6] = target: T1, Serotonin 3 (5-HT3) receptor (Rattus norvegicus, UniProt P35563+Q9JJ16); assay: Displacement of [3H]-Q-ICS 205-930 binding to 5-hydroxytryptamine 3 receptor from rat cortex homogenate
T1 sequence (P35563 whole entry): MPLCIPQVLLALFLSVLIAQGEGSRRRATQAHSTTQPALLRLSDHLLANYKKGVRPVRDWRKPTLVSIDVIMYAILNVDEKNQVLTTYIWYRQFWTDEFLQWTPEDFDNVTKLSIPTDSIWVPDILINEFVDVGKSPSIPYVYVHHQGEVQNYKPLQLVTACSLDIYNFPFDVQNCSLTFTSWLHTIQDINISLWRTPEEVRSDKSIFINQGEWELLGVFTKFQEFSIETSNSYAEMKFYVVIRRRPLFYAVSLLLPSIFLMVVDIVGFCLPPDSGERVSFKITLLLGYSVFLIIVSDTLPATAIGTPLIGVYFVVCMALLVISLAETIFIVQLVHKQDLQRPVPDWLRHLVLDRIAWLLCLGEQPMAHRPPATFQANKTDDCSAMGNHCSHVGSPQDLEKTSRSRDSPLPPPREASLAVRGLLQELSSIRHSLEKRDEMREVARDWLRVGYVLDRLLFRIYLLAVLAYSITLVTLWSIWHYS
T1 sequence (Q9JJ16 whole entry): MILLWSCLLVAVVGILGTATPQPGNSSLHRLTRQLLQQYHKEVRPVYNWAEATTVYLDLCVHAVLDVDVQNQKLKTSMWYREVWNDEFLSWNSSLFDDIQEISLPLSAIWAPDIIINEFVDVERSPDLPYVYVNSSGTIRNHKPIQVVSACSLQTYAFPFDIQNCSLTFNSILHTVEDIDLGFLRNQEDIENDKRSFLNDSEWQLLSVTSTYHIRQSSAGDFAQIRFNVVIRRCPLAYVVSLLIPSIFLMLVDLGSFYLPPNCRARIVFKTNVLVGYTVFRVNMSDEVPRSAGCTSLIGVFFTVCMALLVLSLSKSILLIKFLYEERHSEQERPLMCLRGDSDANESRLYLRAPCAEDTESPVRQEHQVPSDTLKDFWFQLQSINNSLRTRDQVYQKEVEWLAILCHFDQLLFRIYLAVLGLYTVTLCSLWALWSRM

Chain of 5-hydroxytryptamine receptor 1D (P79400 whole entry): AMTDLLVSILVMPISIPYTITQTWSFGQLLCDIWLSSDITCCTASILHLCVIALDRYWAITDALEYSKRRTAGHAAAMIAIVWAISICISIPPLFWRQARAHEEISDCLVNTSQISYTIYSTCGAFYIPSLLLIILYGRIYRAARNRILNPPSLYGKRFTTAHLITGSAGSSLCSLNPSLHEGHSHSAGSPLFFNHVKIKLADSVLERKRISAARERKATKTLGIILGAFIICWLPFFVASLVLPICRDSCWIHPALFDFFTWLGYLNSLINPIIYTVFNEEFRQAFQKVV
Chain of 5-hydroxytryptamine receptor 2A (P14842 whole entry): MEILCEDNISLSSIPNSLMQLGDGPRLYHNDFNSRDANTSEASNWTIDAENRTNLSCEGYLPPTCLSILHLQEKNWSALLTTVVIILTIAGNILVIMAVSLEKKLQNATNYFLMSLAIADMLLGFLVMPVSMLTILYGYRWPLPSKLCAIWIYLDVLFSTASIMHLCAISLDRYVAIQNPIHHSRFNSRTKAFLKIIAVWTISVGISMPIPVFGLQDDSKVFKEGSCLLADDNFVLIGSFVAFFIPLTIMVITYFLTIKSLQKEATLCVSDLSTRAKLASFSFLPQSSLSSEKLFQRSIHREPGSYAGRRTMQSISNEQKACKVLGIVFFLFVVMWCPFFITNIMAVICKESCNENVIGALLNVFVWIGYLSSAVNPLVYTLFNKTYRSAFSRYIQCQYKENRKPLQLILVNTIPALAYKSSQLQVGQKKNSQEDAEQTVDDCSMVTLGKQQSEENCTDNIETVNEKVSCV

Structure (SMILES)	IC50 [1] [nM]	IC50 [2] [µM]	IC50 (5-HT1A receptor) [nM]	logD [3]	EC50 (Oryctolagus cuniculus [4]) [nM]	EC50 (Oryctolagus cuniculus [5]) [nM]	IC50 [6] [µM]
CN(C)CCc1c[nH]c2ccc(N3CCN(Cc4ccccc4)S3(=O)=O)cc12	20	5.01	79.4				
CNCCc1c[nH]c2ccc(CN3CCN(C)S3(=O)=O)cc12	100	> 10	794	-1.71	2000		
CN(C)CCc1c[nH]c2ccc(CN3CCNS3(=O)=O)cc12	100	> 10	794	-0.97		2510	
CN(C)CCc1c[nH]c2ccc(CN3CCN(C)S3(=O)=O)cc12	63.1	> 10	794	-0.68		631	> 10
CN1CCN(Cc2ccc3[nH]cc(CCN)c3c2)S1(=O)=O	316	> 10	631				
CC(=O)Nc1ccc(CN2CCN(Cc3ccc4[nH]cc(CCN(C)C)c4c3)S2(=O)=O)cc1	20	7.94	200	0.42	501		
CN(C)CCc1c[nH]c2ccc(CCN3CCNS3(=O)=O)cc12	39.8	5.01	126				
CN(C)CCc1c[nH]c2ccc(CN3CC(C)(C)NS3(=O)=O)cc12	100	> 10	251	-0.39	2510		
CCN1CCN(CCc2ccc3[nH]cc(CCN(C)C)c3c2)S1(=O)=O	39.8	2	126			1580	
CC(C)N1CCN(Cc2ccc3[nH]cc(CCN(C)C)c3c2)S1(=O)=O	100	> 10	501	0.16			
CNS(=O)(=O)Cc1ccc2[nH]cc(CCN(C)C)c2c1			501				> 10
CN(C)CCc1c[nH]c2ccc(CCN3CCN(C)S3(=O)=O)cc12	39.8	2.51	200	-0.57	1580		
CN1CCN(Cc2ccc3scc(CCN)c3c2)S1(=O)=O	398	2	2000			12600	
CN(C)CCc1c[nH]c2ccc(CN3C(C)(C)CNS3(=O)=O)cc12	200	> 10	1000	-0.78	6310		
CN(C)CCc1c[nH]c2ccc(CN3CCCN(C)S3(=O)=O)cc12	63.1	> 10	126	-0.02	2510		> 10
CN(C)CCc1c[nH]c2ccc(N3CCN(C)S3(=O)=O)cc12	100	> 10	631	-0.92		3160	

From ChEMBL document CHEMBL1127459, “Synthesis and biological activity of 3-[2-(dimethylamino)ethyl]-5-[(1,1-dioxo-5-methyl-1,2,5-thiadiazolidin- 2-yl)-methyl]-1H-indole and analogues: agonists for the 5-HT1D receptor” (J Med Chem, 1994)
